According to ChEMBL document CHEMBL1201862, “PubChem BioAssay data set” (2004):
The source made the active and inactive calls.

How the values were obtained:
CHO-K1 = assay: (§1) Counterscreen for antagonists of the orexin 1 receptor (OX1R; HCRTR1): Homogeneous time resolved fluorescence (HTRF)-based cell-based dose response assay to identify antagonists of the parental CHO-K1 cell line. [Related pubchem assays (depositor defined):AID434989, AID435008, AID463079, AID485270, AID492963, AID492964, AID492965, AID493232, AID504699, AID504701]; format: functional; settings: Cricetulus griseus
Orexin receptor type 2 [1] = molecular target: T1, Orexin receptor type 2 (Homo sapiens, UniProt O43614); assay: Counterscreen assay for antagonists of the orexin 1 receptor (OX1R; HCRTR1): Homogeneous Time Resolved Fluorescence (HTRF)-based cell-based dose response assay for antagonists of the orexin 2 receptor (OX2R; HCRTR2), run by assay provider.; format: functional
T1 sequence (O43614 whole entry): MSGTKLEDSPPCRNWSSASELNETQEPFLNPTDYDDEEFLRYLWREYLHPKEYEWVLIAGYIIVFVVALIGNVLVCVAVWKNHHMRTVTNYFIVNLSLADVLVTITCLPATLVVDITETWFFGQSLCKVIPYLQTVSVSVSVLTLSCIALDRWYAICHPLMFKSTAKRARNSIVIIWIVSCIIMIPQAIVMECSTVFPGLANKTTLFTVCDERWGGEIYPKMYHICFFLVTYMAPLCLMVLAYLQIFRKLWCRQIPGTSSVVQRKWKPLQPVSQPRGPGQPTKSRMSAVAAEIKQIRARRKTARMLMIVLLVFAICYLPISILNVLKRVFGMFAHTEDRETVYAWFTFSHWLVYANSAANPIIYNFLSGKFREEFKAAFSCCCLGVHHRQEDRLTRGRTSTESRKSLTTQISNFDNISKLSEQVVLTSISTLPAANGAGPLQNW

[2] = as §1, with “Fluorescence-based” for “Homogeneous time resolved fluorescence (HTRF)-based”, “cell-based high throughput” for “cell-based”, “CHO” for “CHO-K1”; format: functional
[3] = molecular target: T2, Orexin/Hypocretin receptor type 1 (Homo sapiens, UniProt O43613); assay: Homogeneous Time Resolved Fluorescence (HTRF)-based cell-based high throughput dose response assay for antagonists of the orexin 1 receptor (OX1R; HCRTR1). [Related pubchem assays (depositor defined):AID434989, AID435008, AID463079, AID485270, AID492963, AID492964, AID492965, AID493232, AID504717, AID504718]; format: functional
T2 sequence (O43613 whole entry): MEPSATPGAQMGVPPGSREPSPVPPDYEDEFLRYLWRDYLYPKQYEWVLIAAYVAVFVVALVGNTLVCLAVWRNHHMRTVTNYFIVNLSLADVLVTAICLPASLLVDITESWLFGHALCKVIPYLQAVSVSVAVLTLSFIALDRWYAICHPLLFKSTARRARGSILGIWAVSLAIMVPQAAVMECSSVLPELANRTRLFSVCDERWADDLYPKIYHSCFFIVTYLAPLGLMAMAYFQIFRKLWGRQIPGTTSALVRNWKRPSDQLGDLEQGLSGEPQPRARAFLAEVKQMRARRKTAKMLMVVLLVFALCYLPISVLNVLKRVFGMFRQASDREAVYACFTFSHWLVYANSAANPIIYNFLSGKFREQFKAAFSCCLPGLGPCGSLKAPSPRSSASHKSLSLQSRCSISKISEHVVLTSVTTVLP

[4] = molecular target: T2, Orexin/Hypocretin receptor type 1; assay: Fluorescence-based cell-based high throughput dose response assay for antagonists of the orexin 1 receptor (OX1R; HCRTR1). [Related pubchem assays (depositor defined):AID434989, AID435008, AID463079, AID485270, AID492963, AID492964, AID492965, AID493232, AID504717, AID504718]; format: functional
Orexin receptor type 2 [5] = molecular target: T1, Orexin receptor type 2; assay: Counterscreen assay for antagonists of the orexin 1 receptor (OX1R; HCRTR1): Fluorescence-based cell-based dose response assay for antagonists of the orexin 2 receptor (OX2R; HCRTR2), run by assay provider.; format: functional
[6] = molecular target: T3, Long-chain-fatty-acid--AMP ligase FadD28 (Mycobacterium tuberculosis, UniProt P9WQ59); assay: Fluorescence polarization aasay to screen for inhibitors that compete for the binding of FadD28 to a bisubstrate Measured in Biochemical System Using Plate Reader - 2147-01_Inhibitor_Dose_CherryPick_Activity.; format: functional, Mycobacterium tuberculosis H37Rv
T3 sequence (P9WQ59 whole entry): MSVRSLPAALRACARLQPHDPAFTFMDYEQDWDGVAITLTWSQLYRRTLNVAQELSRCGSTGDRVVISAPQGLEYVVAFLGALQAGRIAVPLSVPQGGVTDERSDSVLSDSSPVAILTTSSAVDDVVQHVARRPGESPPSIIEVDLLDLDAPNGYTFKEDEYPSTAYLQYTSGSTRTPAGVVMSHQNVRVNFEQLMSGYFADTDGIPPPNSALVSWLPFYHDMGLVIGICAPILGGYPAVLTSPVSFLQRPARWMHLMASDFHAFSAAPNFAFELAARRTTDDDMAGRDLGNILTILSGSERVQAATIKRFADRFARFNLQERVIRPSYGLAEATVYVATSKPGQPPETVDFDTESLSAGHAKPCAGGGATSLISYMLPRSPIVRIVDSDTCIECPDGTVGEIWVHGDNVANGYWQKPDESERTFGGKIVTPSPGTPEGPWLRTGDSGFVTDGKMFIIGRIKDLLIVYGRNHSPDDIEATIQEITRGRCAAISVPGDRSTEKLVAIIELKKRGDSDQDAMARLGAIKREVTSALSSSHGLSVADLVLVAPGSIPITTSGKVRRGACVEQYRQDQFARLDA

[7] = molecular target: Arf-GAP with SH3 domain, ANK repeat and PH domain-containing protein 1 (Homo sapiens, UniProt Q9ULH1); format: functional;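 note: biochemical fluorescence polarization dose–response screen measuring inhibition of ASAP1; ASAP1 GAP domain stimulating GTP hydrolysis by truncated human ARF1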
[8] = molecular target: T4, Zinc finger protein mex-5 (Caenorhabditis elegans, UniProt Q9XUB2); assay: potency of MEX-5 RNA-binding blockers – biochemical, C. elegans, fluorescence polarization, dose response (AID 1960)
T4 sequence (Q9XUB2 whole entry): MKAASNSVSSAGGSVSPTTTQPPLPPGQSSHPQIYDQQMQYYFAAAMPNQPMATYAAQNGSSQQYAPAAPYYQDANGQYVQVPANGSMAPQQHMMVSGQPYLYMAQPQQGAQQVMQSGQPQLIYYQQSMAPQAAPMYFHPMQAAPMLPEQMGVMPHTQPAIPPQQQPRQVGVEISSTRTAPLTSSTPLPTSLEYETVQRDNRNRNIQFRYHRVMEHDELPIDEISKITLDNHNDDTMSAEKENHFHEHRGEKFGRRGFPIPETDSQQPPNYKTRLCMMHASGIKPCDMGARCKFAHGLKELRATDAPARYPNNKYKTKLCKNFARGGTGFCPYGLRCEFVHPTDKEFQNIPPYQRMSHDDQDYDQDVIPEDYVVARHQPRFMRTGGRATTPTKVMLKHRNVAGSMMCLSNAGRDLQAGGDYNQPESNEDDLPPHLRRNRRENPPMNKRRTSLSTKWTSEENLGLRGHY

[9] = molecular target: T5, RNA-binding protein pos-1 (Caenorhabditis elegans, UniProt G5EF15); assay: disruptors of C. elegans POS-1 RNA interaction – biochemical, fluorescence polarization, dose response (AID 1964);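 note: purified POS-1 fused to maltose binding protein made in E. coli; potency of compounds blocking POS-1 binding to fluorescent RNA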
T5 sequence (G5EF15 whole entry): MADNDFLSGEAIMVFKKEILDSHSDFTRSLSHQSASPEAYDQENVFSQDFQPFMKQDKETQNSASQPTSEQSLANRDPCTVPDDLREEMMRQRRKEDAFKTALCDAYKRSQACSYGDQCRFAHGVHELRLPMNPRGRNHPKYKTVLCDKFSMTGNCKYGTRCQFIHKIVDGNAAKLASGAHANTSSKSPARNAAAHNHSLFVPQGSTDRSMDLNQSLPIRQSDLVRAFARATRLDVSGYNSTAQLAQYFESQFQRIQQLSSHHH

Caspase-6 = molecular target: T6, Caspase-6 (Homo sapiens, UniProt P55212); assay: inhibition of CASP6 peptide cleavage – biochemical, VEID-R110 fluorescence, cherry-pick, dose response (AID 720632)
T6 sequence (P55212 whole entry): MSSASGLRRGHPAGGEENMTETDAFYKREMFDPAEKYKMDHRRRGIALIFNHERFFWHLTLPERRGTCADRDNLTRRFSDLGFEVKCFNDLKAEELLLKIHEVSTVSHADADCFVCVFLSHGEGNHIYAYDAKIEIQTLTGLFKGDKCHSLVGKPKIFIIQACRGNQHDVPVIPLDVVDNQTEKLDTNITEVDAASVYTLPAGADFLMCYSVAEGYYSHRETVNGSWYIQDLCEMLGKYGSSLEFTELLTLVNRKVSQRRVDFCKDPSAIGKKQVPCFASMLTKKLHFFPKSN

[10] = molecular target: T7, Small ubiquitin-related modifier 1 (Homo sapiens, UniProt P63165); assay: SUMO1 protein-protein binding blockers, potency – biochemical, FRET, dose response (AID 624383); format: functional; settings: read-out: IC50_Mean
Large T antigen = Large T antigen (Simian virus 40, UniProt P03070); format: functional, Betapolyomavirus macacae;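 note: Confirmatory-stage PubChem screen for compounds that inhibit SV40 T antigen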
[11] = molecular target: T7, Small ubiquitin-related modifier 1; assay: SUMO1 protein interaction blockers, potency – biochemical, fluorescence polarization, uHTS hits, dose response (AID 624382); format: functional; settings: read-out: IC50_Mean

T7 sequence (P63165 whole entry): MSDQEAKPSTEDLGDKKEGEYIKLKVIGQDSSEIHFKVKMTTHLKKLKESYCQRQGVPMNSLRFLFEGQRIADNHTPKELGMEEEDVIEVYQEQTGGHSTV
Sequence of Arf-GAP with SH3 domain, ANK repeat and PH domain-containing protein 1 (Q9ULH1 whole entry, the tested form may be a part): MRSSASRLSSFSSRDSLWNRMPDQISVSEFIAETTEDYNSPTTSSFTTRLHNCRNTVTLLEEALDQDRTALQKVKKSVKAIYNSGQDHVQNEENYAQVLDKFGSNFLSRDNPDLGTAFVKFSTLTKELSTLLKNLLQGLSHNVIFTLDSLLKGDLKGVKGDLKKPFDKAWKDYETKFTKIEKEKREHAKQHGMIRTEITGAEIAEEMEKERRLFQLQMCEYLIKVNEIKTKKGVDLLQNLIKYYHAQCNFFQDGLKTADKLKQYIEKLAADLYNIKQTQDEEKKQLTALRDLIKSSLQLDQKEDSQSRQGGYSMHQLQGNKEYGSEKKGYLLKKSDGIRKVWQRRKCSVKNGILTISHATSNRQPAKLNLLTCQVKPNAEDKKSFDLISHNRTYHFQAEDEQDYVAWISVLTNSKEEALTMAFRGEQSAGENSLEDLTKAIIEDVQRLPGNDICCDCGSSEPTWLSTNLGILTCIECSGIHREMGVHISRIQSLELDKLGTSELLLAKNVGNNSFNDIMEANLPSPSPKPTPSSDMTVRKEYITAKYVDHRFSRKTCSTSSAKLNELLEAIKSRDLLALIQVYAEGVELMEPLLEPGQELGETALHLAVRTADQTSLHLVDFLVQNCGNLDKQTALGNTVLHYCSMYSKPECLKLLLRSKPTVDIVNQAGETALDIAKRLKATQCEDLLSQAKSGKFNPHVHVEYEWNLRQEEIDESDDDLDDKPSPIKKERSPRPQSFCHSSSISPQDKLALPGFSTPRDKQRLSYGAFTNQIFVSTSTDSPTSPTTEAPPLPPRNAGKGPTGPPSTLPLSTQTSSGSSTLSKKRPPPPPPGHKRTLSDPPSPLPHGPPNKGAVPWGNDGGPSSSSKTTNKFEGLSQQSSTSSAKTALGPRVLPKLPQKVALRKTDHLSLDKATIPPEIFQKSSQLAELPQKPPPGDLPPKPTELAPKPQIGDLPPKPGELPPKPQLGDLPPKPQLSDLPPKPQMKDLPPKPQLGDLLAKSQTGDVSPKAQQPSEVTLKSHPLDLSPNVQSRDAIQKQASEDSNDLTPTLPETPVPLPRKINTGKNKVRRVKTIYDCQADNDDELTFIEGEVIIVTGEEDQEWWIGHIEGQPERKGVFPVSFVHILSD
Sequence of Large T antigen (P03070 whole entry): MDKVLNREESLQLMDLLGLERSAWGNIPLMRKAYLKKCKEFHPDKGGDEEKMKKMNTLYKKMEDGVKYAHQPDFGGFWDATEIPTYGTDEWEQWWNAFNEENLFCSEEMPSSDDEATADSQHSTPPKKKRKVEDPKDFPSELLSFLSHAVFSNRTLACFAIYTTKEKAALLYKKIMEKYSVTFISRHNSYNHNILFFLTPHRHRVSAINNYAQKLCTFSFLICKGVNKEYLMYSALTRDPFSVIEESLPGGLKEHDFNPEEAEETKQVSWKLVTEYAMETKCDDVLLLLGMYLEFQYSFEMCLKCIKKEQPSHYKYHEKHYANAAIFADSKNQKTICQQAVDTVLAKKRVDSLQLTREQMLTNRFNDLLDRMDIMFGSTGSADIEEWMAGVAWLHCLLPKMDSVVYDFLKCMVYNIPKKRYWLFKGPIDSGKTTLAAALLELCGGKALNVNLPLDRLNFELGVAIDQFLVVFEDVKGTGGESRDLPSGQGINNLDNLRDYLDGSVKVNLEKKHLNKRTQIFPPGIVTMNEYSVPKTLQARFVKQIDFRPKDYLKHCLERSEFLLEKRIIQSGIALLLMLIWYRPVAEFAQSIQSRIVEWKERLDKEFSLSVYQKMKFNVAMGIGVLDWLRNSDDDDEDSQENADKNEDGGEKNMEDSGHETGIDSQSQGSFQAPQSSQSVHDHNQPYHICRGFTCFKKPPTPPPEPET

Structure (SMILES) | IC50 (CHO-K1) | IC50 (Orexin receptor type 2 [1]) | IC50 [2] | IC50 [3] | IC50 [4] | IC50 (Orexin receptor type 2 [5]) | AC50 [6] | EC50 [8] | EC50 [9] | further results
Cc1ccccc1N(CC(=O)NC1CCCC1)C(=O)c1oc(C(C)(C)C)cc1C | > 66.2 µM (inactive) | > 50 µM (inactive) | > 49.8 µM (inactive) | 0.264 µM (active) | 3.52 µM (active) | > 88.8 µM (inactive) |  |  |  | 
COc1cccc(CNC(=O)COc2cc(O)c3c(c2)OC(C)(C)CC3=O)c1 |  |  |  |  |  |  | 79.7 µM (active) |  |  | 
CC[C@]12c3[nH]c4cc(-c5ccco5)ccc4c3CCN1C(=O)[C@@H](CC(=O)NC/C=C(\C)CCC=C(C)C)C[C@@H]2C(=O)N1CCN(C(=O)c2ccco2)CC1 | > 66.2 µM (inactive) | 2.05 µM (active) | > 49.8 µM (inactive) | 1.07 µM (active) | 3.23 µM (active) | 39.5 µM (inactive) |  |  |  | 
COc1ccc([N+](=O)[O-])cc1NC(=O)c1ccc(-n2nc(C)cc2C)cc1 |  |  |  |  |  |  |  |  |  | IC50 [7]: 28 µM (inactive)
Cc1ccc(NC(=O)CN2C(=O)S/C(=C\c3cc(C)n(-c4cccc(C(=O)O)c4)c3C)C2=O)cc1 |  |  |  |  |  |  | 2.03 µM (active) | > 300 µM (not active) | > 300 µM (not active) | 
COc1cc(/C=C2\CCc3c2nc2ccccc2c3C(=O)O)cc(OC)c1OC |  |  |  |  |  |  |  | 34.8 µM (active) | 94 µM (active) | AC50 (Caspase-6): 6.8 µM (active); IC50 [10]: 12.5 µM (active); IC50 (Large T antigen): 35 µM (active); IC50 [11]: > 66.6 µM (inactive)
